Patent US20060276549A1, “Combination and use of drugs” (priority 2005, published 2006)
Read-outs that look alike come from different tables or passages of the source.

What was measured:
[1] = system: Diet-induced Obese (DIO) Mice; assay: Body weight loss in diet-induced obese (DIO) mice; format: in vivo, C57BL/6J mice; settings: for body weight loss at day 14: p.o. q.d., sibutramine 15 mg/kg, rimonabant 3 mg/kg base
Experimental: C57BL/6J mice (age 5-6 weeks) were obtained from Jackson Labs (Bar Harbor, Me.) and housed in groups of 5 under conditions of 12 hours lights on, 12 hours lights off (on at 04:00 h), with food and water available ad libitum. At the beginning of the study, mice were administered a purified low fat diet (D12450Bi, 10 kcal % fat, 3.8 kcal/g) or a high fat content diet (D12492i, 60 kcal % fat, 5.2 kcal/g), both obtained from Research Diets Inc. (New Brunswick, N.J.) for approximately 16 weeks. The fat content of these diets was a mixture of lard and soybean oil.
(§1) Mice were individually housed for study two weeks prior to start of treatment. Mice were weighed one week later (experiment day -7), and conditioned to oral gavage and daily vehicle administration by daily oral treatment at 15:00 h with Tween-80 (Sigma Chemical, St. Louis, Mo.) 1% vehicle in water (V/V). All doses were given in 4 ml/kg body weight volume of vehicle. All compound doses are expressed as base equivalent weights per unit body weight. Mice were reweighed on day -1 to ensure that weight loss plateaued and was not progressive. Mice were stratified into groups of equal mean body weight, with n=20 mice per group. On days 0 to 28, mice were dosed by oral gavage at 15:00 h (q.d.). Sibutramine hydrochloride monohydrate and rimonabant hydrochloride were administered p.o. by gavage for 27 to 28 days at 15:00 h, at doses of 15 mg/kg and 3 mg/kg base, respectively, once a day (q.d.). Compounds were formulated in Tween-80 vehicle. For combination treatment, the individual compound formulations were mixed together immediately prior to dosing, and given as a single gavage. Food and body weights were determined on days 0 prior to treatment, and on days 1, 4, 7, 11, 14, 18, 21, 25, 27 and 28. Ten mice per group were fasted overnight on day 27. […] Plasma was analysed for insulin, leptin, free fatty acids, triglycerides, total cholesterol, HDLc and LDLc. […]

Zucker fa/fa rats = assay: Rat model of snacking behavior with isobologram analysis; format: in vivo; settings: for ED50: Rattus norvegicus, read-out: ED50 for reduction of snack intake (50% reduction in Snack Consumption); for effect on snack intake / snacking: oral dosing before snack
Experimental: Non-fasted male Zucker fa/fa −/− rats (450 gr) were habituated for 3 weeks to a twice weekly, 3 hour exposure to 60% fat diet (RDI #12492) achieving an average snack intake of 12 to 16 g. Compounds or vehicle (1% Tween 80/water) were dosed orally, 1 ml/kg, n=12-15/group, 1 hour before exclusive presentation of the snack. Snack intake and subsequent 21-hour intake of standard chow (Purina 5008) were measured. […] It is unclear from these individual studies, however, if combination treatment would result in an even greater effect on snacking behavior as reflected in a shift of the ED50 to lower doses. Therefore, an isobologram analysis was performed as described in Example 6
Dose response curves for sibutramine hydrochloride monohydrate and rimonabant hydrochloride were generated in the rat snacking model and ED50 and 95% confidence limits derived from the linear part of the curve by linear regression. Two combination studies in snacking (n=12 rats/group) were performed; the first with a fixed dose of sibutramine HCl (5 mg base/kg) co-administered with rimonabant at 1, 2.5, and 5 mg base/kg, and the second with rimonabant fixed at 4 mg base/kg with sibutramine at 2, 4, and 8 mg base/kg, plus vehicle control. ED50 values were derived from the combination studies and plotted on the isobologram. The ED50 is the dose where there is a 50% reduction in Snack Consumption. […] The rimonabant hydrochloride ED50 is 8 mg/kg.

[2] = system: Diet-induced Obese (DIO) Mice; assay: Prevention of body weight re-gain in DIO mice; format: in vivo, C57BL/6J mice; settings: DIO mice re-introduced to high fat food; qd dosing, day 0-7; vs HF, LF, to HF control
Experimental: C57BL/6J mice (age 5-6 weeks) were obtained from Jackson Labs (Bar Harbor, Me.) and housed in groups of 5 under conditions of 12 hours lights on, 12 hours lights off (on at 04:00 h), with food and water available ad libitum. At the beginning of the study, mice were administered a purified low fat diet (D12450Bi, 10 kcal % fat, 3.8 kcal/g) or a high fat content diet (D12492i, 60 kcal % fat, 5.2 kcal/g), both obtained from Research Diets Inc. (New Brunswick, N.J.) for approximately 16 weeks. The fat content of these diets was a mixture of lard and soybean oil. Groups of mice that had been on the high fat diet were switched back to the low fat diet for approximately 4 weeks prior to their being re-introduced to either the high fat food (weight re-gain) or maintained on low fat food. Approximately 5 days prior to the onset of dosing study (Day -5), mice were acclimated to handling and conditioned to oral gavage and daily vehicle administration by daily oral treatment at 15:00 h with Tween-80 (Sigma Chemical, St. Louis, Mo.) 1% vehicle in water (VN). All doses were given in 4 ml/kg body weight volume of vehicle. At the start of drug treatment, mice were dosed qd at 15:00 hr each day for 7 days, and body weights and food intake were evaluated.

[3] = cited from earlier work
DIO mice = assay: DEXA analysis of body composition in DIO mice; format: in vivo; settings: Day 28
Experimental: as §1

SMILES | further weight loss compared with sibutramine treated animals ([1]; Day 14-28) | body weight loss at day 14 [1] | ED50 (Zucker fa/fa rats; Zucker fa/fa rats, oral, 1 hour before 3 hour 60% fat snack) | effect on snack intake / snacking (Zucker fa/fa rats) | body weight re-gain [2] | ED50 (Zucker fa/fa rats; po) | food intake ([3]; literature studies, initially) | reduction of body weight ([3]; over a 6 month or a 1 year period) | lean mass (DEXA) vs. DIO controls (DIO mice)
Cc1c(C(=O)NN2CCCCC2)nn(-c2ccc(Cl)cc2Cl)c1-c1ccc(Cl)cc1 [rimonabant, 1-H-pyrazole-3-carboxamide, 5-(4-chlorophenyl)-1-(2,4-dichlorophenyl)-4-methyl-N-1-piperidinyl] | approximately 4% | 15% | 8 mg/kg | effective in reducing snack intake | prevent body weight re-gain |  |  |  | 
CC(C)CC(N(C)C)C1(c2ccc(Cl)cc2)CCC1 (stereo not drawn) [sibutramine, N,N-dimethyl-1-[1-(4-chlorophenyl)cyclobutyl]-3-methylbutylamine] |  | 14% |  | effective in reducing snack intake | prevent body weight re-gain | 24 mg/kg | potently inhibits food intake | about 10% | statistical decreases in lean mass
